This test deals with T1, Na^+ /H^+ exchanger of rabbit erythrocytes (Oryctolagus cuniculus, UniProt P23791).
T1 construct: endogenous in cells; host or cells: erythrocytes in blood of cholesterol-fed New Zealand White rabbits (Ivanovas)
Nature of the test: Inhibition of the Na^+ /H^+ exchanger of rabbit erythrocytes (amiloride-sensitive Na^+ influx, flame photometry). Format: cell-based, rabbit (New Zealand White). Conditions: erythrocytes of rabbits fed 2% cholesterol diet for six weeks; pH 7.4, 37° C.; hyperosmolar salt/sucrose medium. An excerpt: Inhibition of the Na^+ /H^+ exchanger of rabbit erythrocytes
New Zealand White rabbits (Ivanovas) received a standard diet containing 2% cholesterol for six weeks in order to activate the Na^+ /H^+ exchange and thus to be able to determine, by flame photometry, the Na^+ influx into the erythrocytes via Na^+ /H^+ exchange. The blood was removed from the aural arteries and rendered incoagulable using 25 IU of potassium heparin. A part of each sample was used for the duplicate determination of the hematocrit by means of centrifugation. Aliquots of in each case 100 μl were used for measuring the initial Na^+ content of the erythrocytes.
In order to determine the amiloride-sensitive sodium influx, 100 μl of each blood sample were in each case incubated, at pH 7.4 and 37° C., in 5 ml of a hyperosmolar salt/sucrose medium (mmol/l: 140 NaCl, 3 KCl, 150 sucrose, 0.1 ouabain, 20 tris(hydroxymethyl)aminomethane). […] The intracellular sodium content was determined by flame photometry.
The net influx of Na^+ was calculated from the difference between the initial sodium values and the sodium content of the erythrocytes following incubation. The amiloride-inhibitable sodium influx was calculated from the difference in the sodium content of the erythrocytes following incubation with and without amiloride 3×10^-4 mol/l. […]

SMILES strings stand for the structures. Counter-ions that a name gives are not always drawn.

The values below come from US5753710A, “Substituted benzyloxycarbonylguanidines, a process for their preparation, their use as a medicament or diagnostic, and a medicament containing them” (Hoechst Aktiengesellschaft, priority 1995, dated 1998).

T1 sequence (P23791 whole entry): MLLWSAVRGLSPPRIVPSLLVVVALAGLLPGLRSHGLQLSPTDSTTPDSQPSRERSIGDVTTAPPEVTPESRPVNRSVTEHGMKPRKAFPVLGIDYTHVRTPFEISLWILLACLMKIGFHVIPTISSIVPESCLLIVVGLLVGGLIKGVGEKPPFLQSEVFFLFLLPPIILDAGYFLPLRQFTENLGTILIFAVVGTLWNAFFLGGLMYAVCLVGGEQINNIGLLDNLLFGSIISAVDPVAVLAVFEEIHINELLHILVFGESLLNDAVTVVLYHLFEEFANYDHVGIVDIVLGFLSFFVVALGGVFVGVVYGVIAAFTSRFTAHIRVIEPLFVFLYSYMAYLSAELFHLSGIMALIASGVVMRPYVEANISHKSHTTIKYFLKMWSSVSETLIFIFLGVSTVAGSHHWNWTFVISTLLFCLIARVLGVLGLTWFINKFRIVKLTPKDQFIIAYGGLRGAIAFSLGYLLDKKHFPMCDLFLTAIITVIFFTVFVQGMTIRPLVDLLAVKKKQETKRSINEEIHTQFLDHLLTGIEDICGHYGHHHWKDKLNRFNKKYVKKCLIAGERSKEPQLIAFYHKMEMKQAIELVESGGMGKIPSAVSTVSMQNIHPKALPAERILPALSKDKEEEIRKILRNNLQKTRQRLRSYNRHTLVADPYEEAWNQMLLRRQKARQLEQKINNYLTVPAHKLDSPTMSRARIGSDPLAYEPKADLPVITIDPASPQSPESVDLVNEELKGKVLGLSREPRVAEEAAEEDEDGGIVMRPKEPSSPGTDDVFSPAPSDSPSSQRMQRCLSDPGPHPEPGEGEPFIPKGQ

For orientation: IC50 means the concentration at which inhibition is half-maximal. For `NC(N)=NC(=O)OCc1ccc(Oc2cccnc2)c(C(F)(F)F)c1` [Example 1, 4-(3-Pyridyloxy)-3-trifluoromethyl-benzyloxycarbonylguanidine, dihydrochloride], the 50% inhibitory concentration (IC50) is less than 1000 nM.
